The record followed here is US20170258871A1, “COMBINED USE OF A TRKA INHIBITOR AND AN EPHA2 INHIBITOR FOR USING IN THE TREATMENT OF SOLID CANCERS, AND METHOD FOR THE PROGNOSIS OF SURVIVAL OF A PATIENT WHO HAS A SOLID CANCER” (UNIVERSITE DES SCIENCES ET TECHNOLOGIES DE LILLE, priority 2014, published 2017).

Holding throughout (format): cell-based
For one series, the system named is Src. Kind of series: Western blot of Src phosphorylation in MDA-MB-231 cells. The protocol:
FIG. 8: A study of the role of TrkA and EphA2 in the activation of proteins Akt and Src. Cells MDA-MB-231 were respectively treated with a TrkA inhibitor (K252a), an anti-EphA2 siRNA (siEphA2), an inhibitor of PI3-K (LY294002) and an inhibitor of Src (SKI-1).
A and D. Cells MDA-MB-231 HA-TrkA were treated with proNGF N.C. […] The phosphorylation of Akt and Src was determined by using phospho-specific antibodies. The equal charge was verified using Akt and Src antibodies.
C and F. The phosphorylation of Akt and Src was determined in the total lysates coming from cells MDA-MB-231 transfected with siEphA2 and treated for 30 minutes with proNGF N.C. (C) or NGF (F).
After treatment, the cells were lysed (lysis buffer: 40 mM HEPES pH 7.5; 1 mM EDTA pH 8.0; 120 mM NaCl; 10 mM NaPPi; 50 mM NaF; 1.5 mM Na3VO4; 1% Triton X 100; 0.1% SDS; 1 mM PMSF; 10% glycerol and 1/100 th of protease inhibitor cocktail (Sigma) (20 min; 4° C.)). The lysates were recovered and clarified by centrifugation (12,000 g; 10 min; 4° C.). The supernatant was then stored at −80° C. until use. The protein extracts were diluted to 2 μg·μL−1 in a Laemmli 1× buffer (7 min; 100° C.) then deposited and separated on SDS-PAGE (concentration gel 3.6% acrylamide and separation gel 7.5% to 10% acrylamide (thickness 1 mm); 180 V; 10 min then 200 V constant; until output of the migration front). The proteins separated by SDS-PAGE were transferred according to the semi-dry transfer method (buffer: 48 mM Tris base, 39 mM glycine, 1.64 mM SDS, 20% methanol (v/v); 14 V; 15 min per gel) or liquid (buffer: 25 mM Tris base and 192 mM glycine; 15% methanol (v/v); 100 V; 30 min) on nitrocellulose membranes (0.45 μm; Whatman; Germany) or PVDF (0.45 μm; Immobilon P; Millipore; France). The PVDF membrane was “activated” beforehand (methanol; 10 min; 20° C.). The membranes were then saturated (TBS-T; 5% BSA; 1 h; 20° C.) then incubated (16 h; 4° C.) with the chosen primary antibody. […] The membranes were placed in an image analyser (LAS 4000; Fuji) connected to a computer which allowed image generation (software Image Reader LAS 4000).
The antibody against EphA2 was sc-924 (Santa Cruz), the antibody against sortilin was BD Bioscience 612101, the antibody against TrkA was sc 14024 (Santa Cruz), the antibody against HA was MMS-101R (Covance), the antibody against Akt was Cell Signaling 4691, the antibody against phospho-Akt (Ser 473) was Cell Signaling 9271, the antibody against Src was Cell Signaling 2109 (WB), the antibody against PhosphoSrc (Tyr416) was Cell Signaling 2105 and the antibody against actin was Sigma A2066.
Proteins Akt and Src were both involved in the pro-invasive effect of proNGF. In order to identify the role of TrkA and EphA2 in the activation of proteins Akt and Src, cells MDA-MB-231 were treated respectively with a TrkA inhibitor (K252a), an anti-EphA2 siRNA (siEphA2) the sequence of which is presented in table 1, a PI3-K inhibitor (LY294002) (the activation of Akt in effect underlies that of PI3-K) and an inhibitor of Src (SKI-1).

In the next series the test system is DU145 cells. As to the kind of experiment: In vitro invasion test (Boyden chamber), DU145. The protocol:
(§1) (0.5 nM) for a period of 20 hours. The untreated cells represent the control and determine a base invasion of 100%.
(§2) FIG. 3: A study of the involvement of EphA2 on the pro-invasive effects of proNGF. The invasion test is carried out on cells MDA-MB-231 (A), DU145 (B) and PC3 (C) transfected with a siRNA against EphA2 (siEphA2), TrkA (siTrkA) or a random siRNA (siCTRL). The transfected siCTRL cells are treated to provide a control and determine a base invasion of 100% (white column). […] The efficacy of the siRNA is measured by the western blot method through the use of specific antibodies against TrkA, EphA2, and actin (load control).
The Boyden Chambers (Transwell®; BD Biosciences; France) were recovered from a biological matrix (type 1 collagen from rats diluted to 400 μg·mL-1 in EMEM-0.1% FCS medium; Millipore). The cells were then seeded with 100,000 cells/well on PET membranes (polyethylene terephtalate; dia.: 10.5 mm; porosity: 8 μm) of Boyden Chambers and held in an EMEM-0.1% FCS medium. […] (0.5 nM) in the lower part. […] The number of cells was estimated after staining with Hoechst 33 258 (1 mM; 30 min; 20° C.) by counting the nuclei thereof using fluorescence microscopy on a total of 5 five randomly chosen fields (lens 10×; λ-excitation: 345 nm; λ-emission: 478 nm; Eclipse Ti) using the ImageJ software. […]

A further series deals with MDA-MB-231 cells. As to the kind of experiment: In vitro invasion test (Boyden chamber), MDA-MB-231. The protocol:
as §1, §2
FIG. 10: Study on the effect of lestaurtinib (TrkA inhibitor) and EphrinA1-Fc (EphA2 inhibitor) and combination of treatment on invasion of breast cancer cells. […] Non-stimulated cells (“non stim”) of proNGF served as the control and determined a base invasion of 100% (white bar).
The Boyden Chambers (Transwell®; BD Biosciences; France) were recovered from a biological matrix (type 1 collagen from rats diluted to 400 μg·mL-1 in EMEM-0.1% FCS medium; Millipore). […] The number of cells was estimated after staining with Hoechst 33 258 (1 mM; 30 min; 20° C.) by counting the nuclei thereof using fluorescence microscopy on a total of 5 five randomly chosen fields (lens 10×; λ-excitation: 345 nm; λ-emission: 478 nm; Eclipse Ti) using the ImageJ software. […]

Where [1] appears, read: NGF 16 nM or proNGF N.C. 0.5 nM, untreated cells = 100%.
The mark [2] stands for this setting: siRNA transfection vs siCTRL, proNGF.

As to “NGF: Nerve Growth Factor; recombinant human β NGF supplied by Scil Proteins”, the “activation (phosphorylation) of Src by the ligand” value in the series on Src (MDA-MB-231 HA-TrkA, 30 min) is given as “increased”. Besides, the “cell invasion under growth factor” value in the series with DU145 cells (setting [1]) and with MDA-MB-231 cells (setting [1]) was “increased cell invasion” throughout.
Consider “siEphA2: siRNA against EphA2, GCAAGGAAGUGGUACUGCUGGACUU (SEQ ID NO: 1) (listed as RNA, chemistry not given here)”, for which the “effect on Src phosphorylation induced by NGF” value with Src (NGF 30 min, 10 nM K252a or siEphA2) is “reduces only the base activation of phospho-Akt and phospho-Src but not the phosphorylation induced by the NGF”. Moreover, the “effect on Src activation induced by proNGF” value in the series with Src (proNGF N.C. 30 min, 10 nM K252a, 15 μM LY294002, 50 nM SKI-1 or siEphA2) is given as “reduced the phosphorylation of Src”. Also, the “invasion induced by proNGF in siRNA-transfected cells” value with DU145 cells (setting [2]) and in the series with MDA-MB-231 cells (setting [2]) was “abolished the invasion induced by proNGF” each time.
